The text below walks through data of patent US5350677A, “Method of assaying phosphatase with 3,4-dinitrophenylphosphate” (Iatron Laboratories, Inc., priority 1989, dated 1994).

The conditions of data set [1]: without solubilizing auxiliary agent; cited from earlier work.
Data set [2] in a line: Stability (decomposition) of substrate in aqueous solution. In kind it is physicochemical.

For `CC(=O)N[C@H]1[C@H](Oc2ccc([N+](=O)[O-])cc2Cl)O[C@H](CO)[C@@H](O)[C@@H]1O` [2-chloro-4-nitrophenyl-N-acetyl-β-D-glucosaminide], the “solubility in water” value in data set [1] was “difficult to dissolve in water”. Consider `CC(=O)N[C@H]1[C@H](Oc2ccc([N+](=O)[O-])c([N+](=O)[O-])c2)O[C@H](CO)[C@@H](O)[C@@H]1O` [3,4-DNG, 3,4-dinitrophenyl-N-acetyl-β-D-glucosaminide], for which the decomposition ratio in data set [2] (enzyme reaction conditions (pH 5, 37° C.) for one hour, 60 min) stood at 1.5%. Further, in data set [2] (under ice-cooling), the “stability of aqueous solution” value is given as “stable”.
